The values below come from patent publication US8614201B2 (Janssen Pharmaceutica NV, priority 2009, dated 2013).

In this test the target is Human TRPA1 (Homo sapiens, UniProt O75762). As to the kind of experiment: Assay 1: In vitro cellular testing of TRPA1 modulation (CHO-TREx, Fluo-3 calcium fluorescence, AITC agonist). The class given is cell-based. The conditions noted are these: CHO-TREx cells expressing human TRPA1; Fluo-3 fluorescence (FLIPR/Tetra); agonist 15 μM allyl isothiocyanate (AITC); 30 minute antagonist incubation. Also on record: expressed in transfected cells; host or cells: CHO-TREx cells (Invitrogen), vector pcDNA4/TO. The procedure, abridged: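 Antagonist potency is the 50% reduction of the AITC (15 μM) calcium response, Hill-fitted against no-antagonist and 10 μM ruthenium red controls. Fluo-3-loaded (4 μM) CHO-TREx cells with tetracycline-inducible human TRPA1 got compound in HEPES saline pH 7.4 for 30 min, usually from 10 μM in three-fold dilutions.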
Sequence of Human TRPA1 (O75762 whole entry): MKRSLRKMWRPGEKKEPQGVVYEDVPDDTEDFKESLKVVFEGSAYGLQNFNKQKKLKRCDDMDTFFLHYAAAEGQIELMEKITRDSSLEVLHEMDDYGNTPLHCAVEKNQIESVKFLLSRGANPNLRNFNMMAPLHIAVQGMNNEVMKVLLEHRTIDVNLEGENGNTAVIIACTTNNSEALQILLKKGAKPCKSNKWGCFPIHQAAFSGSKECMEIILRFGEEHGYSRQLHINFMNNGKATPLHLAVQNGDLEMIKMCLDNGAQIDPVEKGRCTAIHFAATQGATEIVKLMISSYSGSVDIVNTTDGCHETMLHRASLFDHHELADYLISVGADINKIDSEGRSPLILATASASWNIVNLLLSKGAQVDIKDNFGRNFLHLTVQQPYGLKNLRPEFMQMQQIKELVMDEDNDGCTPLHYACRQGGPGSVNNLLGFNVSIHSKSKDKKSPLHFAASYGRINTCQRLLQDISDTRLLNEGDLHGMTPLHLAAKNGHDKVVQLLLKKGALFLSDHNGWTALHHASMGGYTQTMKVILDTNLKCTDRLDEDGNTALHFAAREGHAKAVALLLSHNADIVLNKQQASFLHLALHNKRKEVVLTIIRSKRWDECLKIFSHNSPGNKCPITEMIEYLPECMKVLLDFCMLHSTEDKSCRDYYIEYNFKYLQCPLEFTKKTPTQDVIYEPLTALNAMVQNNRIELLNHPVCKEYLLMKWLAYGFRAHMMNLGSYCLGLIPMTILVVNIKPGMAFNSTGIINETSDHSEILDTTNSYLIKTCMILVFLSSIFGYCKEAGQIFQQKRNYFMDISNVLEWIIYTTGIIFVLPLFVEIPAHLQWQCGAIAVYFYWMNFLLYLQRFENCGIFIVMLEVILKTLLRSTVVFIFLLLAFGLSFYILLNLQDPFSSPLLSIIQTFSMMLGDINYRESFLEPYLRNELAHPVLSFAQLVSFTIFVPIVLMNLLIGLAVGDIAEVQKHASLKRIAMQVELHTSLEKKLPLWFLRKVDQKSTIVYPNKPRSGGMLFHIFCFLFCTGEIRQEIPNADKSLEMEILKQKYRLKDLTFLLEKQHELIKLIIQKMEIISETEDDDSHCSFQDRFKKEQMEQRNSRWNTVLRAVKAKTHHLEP
In general, IC50 refers to the concentration at which inhibition is half-maximal. For `O=C(NCc1cc(-c2ccc(C(F)(F)F)cc2)ncn1)[C@@H]1CCCN1S(=O)(=O)c1cc(F)cc(F)c1` [Example 169, 1-(3,5-Difluorobenzenesulfonyl)-pyrrolidine-2S-carboxylic acid [6-(4-trifluoromethylphenyl)-pyrimidin-4-ylmethyl]-amide], the IC50 stood at 0.051 µM. For `O=C(NCc1cc(-c2ccc(C(F)(F)F)cc2)ncn1)[C@@H]1CCCN1S(=O)(=O)c1cccs1` [Example 170, 1-(Thiophene-2-sulfonyl)-pyrrolidine-2S-carboxylic acid [6-(4-trifluoromethylphenyl)-pyrimidin-4-ylmethyl]-amide], the IC50 is 0.02 µM. In the case of `O=C(NCc1cccc(-c2ccc(Cl)cc2)c1)[C@@H]1CCCN1S(=O)(=O)c1ccc(F)cc1` [Example 171, 1-(4-Fluorobenzenesulfonyl)-pyrrolidine-2S-carboxylic acid (4′-chlorobiphenyl-3-ylmethyl)-amide], the IC50 is 0.019 µM. On to `O=C(NCc1cc(-c2ccc(C(F)(F)F)cc2)ncn1)[C@@H]1CCCN1S(=O)(=O)c1ccsc1` [Example 172, 1-(Thiophene-3-sulfonyl)-pyrrolidine-2S-carboxylic acid [6-(4-trifluoromethyl-phenyl)-pyrimidin-4-ylmethyl]-amide], for which the IC50 is 0.011 µM. Take `O=C(NCc1cc(-c2ccc(C(F)(F)F)cc2)ncn1)[C@@H]1CCCN1S(=O)(=O)c1cc(Cl)sc1Cl` [Example 173, 1-(2,5-Dichlorothiophene-3-sulfonyl)-pyrrolidine-2S-carboxylic acid [6-(4-trifluoromethylphenyl)-pyrimidin-4-ylmethyl]-amide]: the IC50 worked out at 1.15 µM. Turning to `O=C(NCc1cc(-c2ccc(C(F)(F)F)cc2)ncn1)[C@@H]1CCCN1S(=O)(=O)c1ccc(Cl)nc1` [Example 174, 1-(6-Chloropyridine-3-sulfonyl)-pyrrolidine-2S-carboxylic acid [6-(4-trifluoromethylphenyl)-pyrimidin-4-ylmethyl]-amide], the IC50 was found to be 0.095 µM. `O=C(NCc1cc(-c2ccc(C(F)(F)F)cc2)ncn1)[C@@H]1CCCN1S(=O)(=O)c1ccoc1` [Example 176, 1-(Furan-3-sulfonyl)-pyrrolidine-2S-carboxylic acid [6-(4-trifluoromethylphenyl)-pyrimidin-4-ylmethyl]-amide]: the IC50 turned out to be 0.045 µM. In the case of `O=C(NCc1cc(-c2ccc(OC(F)(F)F)cc2)ncn1)[C@@H]1CCCN1S(=O)(=O)c1ccc(F)cc1` [Example 177, 1-(4-Fluorobenzenesulfonyl)-pyrrolidine-2S-carboxylic acid [6-(4-trifluoromethoxyphenyl)-pyrimidin-4-ylmethyl]-amide], the 50% inhibitory concentration (IC50) was 0.071 µM. Regarding `O=C(NCc1cc(-c2ccc(C(F)(F)F)nc2)ncn1)[C@@H]1CCCN1S(=O)(=O)c1ccc(F)cc1` [Example 178, 1-(4-Fluoro-benzenesulfonyl)-pyrrolidine-2S-carboxylic acid [6-(6-trifluoromethyl-pyridin-3-yl)-pyrimidin-4-ylmethyl]-amide], the IC50 is 0.203 µM. Turning to `O=C(NCc1cc(-c2ccc(C(F)(F)F)cc2)ncn1)[C@@H]1CC(F)(F)CN1S(=O)(=O)c1ccc(F)cc1` [Example 179, (2S)-4,4-Difluoro-1-(4-fluoro-benzenesulfonyl)-pyrrolidine-2-carboxylic acid [6-(4-trifluoromethyl-phenyl)-pyrimidin-4-ylmethyl]-amide], the IC50 amounted to 0.229 µM.

`O=C(NCc1cc(-c2ccc(C(F)(F)F)cc2)ncn1)[C@@H]1CC(F)(F)CN1S(=O)(=O)c1ccc(Cl)s1` [Example 180, (2S)-1-(5-Chloro-thiophene-2-sulfonyl)-4,4-difluoro-pyrrolidine-2-carboxylic acid [6-(4-trifluoromethyl-phenyl)-pyrimidin-4-ylmethyl]-amide]: the IC50 is 0.228 µM.

On to `Cc1nc(CNC(=O)[C@@H]2CCCN2S(=O)(=O)c2ccc(F)cc2)cc(-c2ccc(C(F)(F)F)cc2)n1` [Example 183, 1-(4-Fluoro-benzenesulfonyl)-pyrrolidine-2S-carboxylic acid [2-methyl-6-(4-trifluoromethyl-phenyl)-pyrimidin-4-ylmethyl]-amide], for which the IC50 is 0.02 µM. Take `O=C(NCc1nccc(-c2ccc(C(F)(F)F)cc2)n1)[C@@H]1CCCN1S(=O)(=O)c1ccc(F)cc1` [Example 185, (2S)-1-(4-Fluoro-benzenesulfonyl)-pyrrolidine-2-carboxylic acid [4-(4-trifluoromethyl-phenyl)-pyrimidin-2-ylmethyl]-amide]: the IC50 stood at 0.433 µM. Regarding `O=C(NCc1nccc(-c2ccc(C(F)(F)F)cc2)n1)[C@@H]1CCCN1S(=O)(=O)c1ccc(Cl)s1` [Example 186], the IC50 was found to be 0.227 µM.

As to `O=C(NCc1ccnc(-c2ccc(C(F)(F)F)cc2)n1)[C@@H]1CCCN1S(=O)(=O)c1ccc(F)cc1` [Example 187, (2S)-1-(4-Fluoro-benzenesulfonyl)-pyrrolidine-2-carboxylic acid [2-(4-trifluoromethyl-phenyl)-pyrimidin-4-ylmethyl]-amide], the IC50 worked out at 0.806 µM. With `O=C(NCc1cc(-c2ccc(C(F)(F)F)cc2)nc(N2CCC(Cc3ccccc3)CC2)n1)[C@@H]1CCCN1S(=O)(=O)c1ccc(F)cc1` [Example 189, 1-(4-Fluoro-benzenesulfonyl)-pyrrolidine-2S-carboxylic acid [2-(4-benzyl-piperidin-1-yl)-6-(4-trifluoromethyl-phenyl)-pyrimidin-4-ylmethyl]-amide] the figure was 0.002 µM; with `O=C(NCc1cc(-c2ccc(C(F)(F)F)cc2)nc(NC2CCCC2)n1)[C@@H]1CCCN1S(=O)(=O)c1ccc(F)cc1` [Example 193, 1-(4-Fluoro-benzenesulfonyl)-pyrrolidine-2S-carboxylic acid [2-cyclopentylamino-6-(4-trifluoromethyl-phenyl)-pyrimidin-4-ylmethyl]-amide], 0.085 µM.

On to `O=C(NCc1cc(-c2ccc(C(F)(F)F)cc2)nc(N2CCCC2)c1)[C@@H]1CCCN1S(=O)(=O)c1ccc(F)cc1` [Example 317, 1-(4-Fluoro-benzenesulfonyl)-pyrrolidine-S2-carboxylic acid [2-pyrrolidin-1-yl-6-(4-trifluoromethyl-phenyl)-pyridin-4-ylmethyl]-amide], for which the 50% inhibitory concentration (IC50) was determined as 0.016 µM. For the compound `O=C(NCc1cc(-c2ccc(C(F)(F)F)cc2)nc(N2CCCCC2)c1)[C@@H]1CCCN1S(=O)(=O)c1ccc(F)cc1` [Example 318, 1-(4-Fluoro-benzenesulfonyl)-pyrrolidine-S2-carboxylic acid [6′-(4-trifluoromethyl-phenyl)-3,4,5,6-tetrahydro-2H-[1,2′]bipyridinyl-4′-ylmethyl]-amide], the IC50 amounted to 0.029 µM. With `O=C(NCc1cc(-c2ccc(C(F)(F)F)cc2)nc(N2CCCCC2)c1)[C@@H]1CCCN1S(=O)(=O)c1ccc(Cl)s1` [Example 319, 1-(5-Chloro-thiophene-2-sulfonyl)-pyrrolidine-S2-carboxylic acid [6′-(4-trifluoromethyl-phenyl)-3,4,5,6-tetrahydro-2H-[1,2′]bipyridinyl-4′-ylmethyl]-amide], the half-maximal inhibitory concentration (IC50) came out at 0.021 µM.

Take `O=C(NCc1cc(NCc2ccccc2)nc(-c2ccc(C(F)(F)F)cc2)c1)[C@@H]1C=CCN1S(=O)(=O)c1ccc(Cl)s1` [Example 320, (2S)—N-({2-(Benzylamino)-6-[4-(trifluoromethyl)phenyl]pyridin-4-yl}methyl)-1-[(5-chlorothiophen-2-yl)sulfonyl]-2,5-dihydro-1H-pyrrole-2-carboxamide]: the IC50 turned out to be 0.745 µM. Regarding `O=C(NCc1cc(NCc2ccccc2)nc(-c2ccc(C(F)(F)F)cc2)c1)[C@@H]1C=CCN1S(=O)(=O)c1ccc(F)cc1` [Example 321, (2S)—N-({2-(Benzylamino)-6-[4-(trifluoromethyl)phenyl]pyridin-4-yl}methyl)-1-[(4-fluorophenyl)sulfonyl]-2,5-dihydro-1H-pyrrole-2-carboxamide], the IC50 was 1.02 µM.

On to `O=C(NCc1cc(NCc2ccccc2)nc(-c2ccc(C(F)(F)F)cc2)c1)[C@@H]1CCCN1S(=O)(=O)c1ccc(F)cc1` [Example 322, N-({2-(Benzylamino)-6-[4-(trifluoromethyl)phenyl]pyridin-4-yl}methyl)-1-[(4-fluorophenyl)sulfonyl]-L-prolinamide], for which the IC50 was determined as 1.18 µM. On to `O=C(NCc1cc(NCc2ccccc2)nc(-c2ccc(C(F)(F)F)cc2)c1)[C@@H]1CCCN1S(=O)(=O)c1ccc(Cl)s1` [Example 323, N-({2-(Benzylamino)-6-[4-(trifluoromethyl)phenyl]pyridin-4-yl}methyl)-1-[(5-chlorothiophen-2-yl)sulfonyl]-L-prolinamide], for which the 50% inhibitory concentration (IC50) was determined as 0.51 µM. On to `O=C(NCc1cc(-c2ccc(C(F)(F)F)cc2)nc(N2CCN(c3ccccc3F)CC2)c1)[C@@H]1CCCN1S(=O)(=O)c1ccc(Cl)s1` [Example 324, 1-[(5-Chlorothiophen-2-yl)sulfonyl]-N-({2-[4-(2-fluorophenyl)piperazin-1-yl]-6-[4-(trifluoromethyl)phenyl]pyridin-4-yl}methyl)-L-prolinamide], for which the IC50 worked out at 0.412 µM.

Regarding `O=C(NCc1cc(-c2ccc(C(F)(F)F)cc2)nc(N2CCN(c3ccccc3F)CC2)c1)[C@@H]1CCCN1S(=O)(=O)c1ccc(F)cc1` [Example 325, N-({2-[4-(2-Fluorophenyl)piperazin-1-yl]-6-[4-(trifluoromethyl)phenyl]pyridin-4-yl}methyl)-1-[(4-fluorophenyl)sulfonyl]-L-prolinamide], the IC50 is 0.845 µM. Regarding `O=C(NCc1cc(-c2ccc(C(F)(F)F)cc2)nc(N2CCN(c3ccccc3F)CC2)c1)[C@@H]1C=CCN1S(=O)(=O)c1ccc(F)cc1` [Example 326, (2S)—N-({2-[4-(2-Fluorophenyl)piperazin-1-yl]-6-[4-(trifluoromethyl)phenyl]pyridin-4-yl}methyl)-1-[(4-fluorophenyl)sulfonyl]-2,5-dihydro-1H-pyrrole-2-carboxamide], the half-inhibitory concentration (IC50) is 5.97 µM.
